Entries after “also recorded” stand apart in the source; their conditions may differ.

The source of these data is patent US10329542B2, “HBV RNAse H purification and enzyme inhibitors” (Saint Louis University, priority 2012, dated 2019).

For one assay, the system named is HBV. Nature of the assay: HBV genomic replication assays (Table 2). The class given is cell-based, Hepatitis B virus. The following applies: class by active concentration. The essentials:
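Huh7 cells transfected with HBV plasmid received compound at 10 or 50 μM, refreshed every 1-2 days. Core-particle DNA isolated 4-5 days post-transfection was analysed by Southern blot, with or without RNaseH. For the screen, replicating cells got 60, 20 or 6.7 μM, refreshed days 1-2, and plus-strand DNA was quantified on day 3 by cross-gap TaqMan PCR.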

Another assay deals with HBV genotype H RNAseH. Nature of the assay: Oligonucleotide-directed RNAseH cleavage assay, HBV genotype H. Format: biochemical, Hepatitis B virus. The conditions noted are these: for Residual activity at 10 uM, Genotype H: ± standard deviation, 3 to 7 replicates; for Residual activity at 10 uM, Genotype H / Inhibition of HBV genotype H RNAseH: 10 μM; for Inhibition of HBV genotype H RNAseH: below threshold of irrelevant controls. An outline of the steps: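 HBV RNAseH protein extracts mixed with internally ^32P-labeled RNA plus excess complementary DNA oligonucleotide (inverse-complement as negative control) in 65 mM Tris pH 8.0, 190 mM NaCl, 5 mM MgCl2, 1% DMSO; 90 min at 42° C. Cleavage products resolved by SDS-PAGE, quantified by autoradiography; IC50 by non-linear regression.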

The next assay addresses T1, human RNAseH1 (Homo sapiens, UniProt O60930).
T1 construct: hexahistidine (N); made in house; host or cells: E. coli BL21 codon+
T1 sequence (O60930 1-286): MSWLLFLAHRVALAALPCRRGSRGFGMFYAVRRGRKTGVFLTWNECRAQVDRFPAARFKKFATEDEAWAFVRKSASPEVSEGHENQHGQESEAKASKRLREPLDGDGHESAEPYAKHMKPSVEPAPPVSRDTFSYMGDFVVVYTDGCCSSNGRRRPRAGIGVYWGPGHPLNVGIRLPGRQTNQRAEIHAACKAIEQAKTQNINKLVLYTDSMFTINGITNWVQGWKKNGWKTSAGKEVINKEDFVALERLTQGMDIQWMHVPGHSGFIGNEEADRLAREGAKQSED
Nature of the assay: Oligonucleotide-directed RNAseH assay, recombinant human RNAseH1. Format: biochemical. The conditions noted are these: for Inhibition of human RNAseH1: 10 μM, compared directly with HRHPL; for Activity vs. human RNAseH1: class by concentration giving inhibition (10, 20, 60 μM). The essentials:
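His-tagged human RNAseH1, expressed in E. coli and titrated to an activity matching the HBV enzyme, was incubated with internally 32P-labelled RNA plus a complementary DNA oligonucleotide. Reactions ran for 90 min at 42 °C in 65 mM Tris pH 8.0, 190 mM NaCl and 5 mM MgCl2, with 1% DMSO. Cleavage was measured by SDS-PAGE autoradiography.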

The target of assay [1] is T2, chimeric HBV:HIV RNAseH HHC1 (Hepatitis B virus genotype D subtype ayw, UniProt P03156, DELINS787-795[…]/INS679M).
T2 construct: HHC1 is an HRHPL derivative; made in house; host or cells: E. coli BL21 codon+
Nature of the assay: Oligonucleotide-directed RNAseH cleavage assay, chimeric HHC1. The conditions noted are these: 10 μM; ± standard deviation, 3 to 7 replicates. Format: biochemical. An outline of the steps: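 Bacterially expressed C-terminal His-tagged HHC1 (HRHPL, HBV genotype D pol 684-845, with residues 800-808 swapped for HIV RNAseH helix D) extract mixed with internally 32P-labeled DRF+ RNA and oligonucleotide D2507- (D2526+ negative control), 42 °C, 90 min. Products resolved by 12% SDS-PAGE, autoradiographed and quantified; compounds added in DMSO, DMSO vehicle control.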

T2 sequence (P03156 680-786, added parts left off, stated change not applied): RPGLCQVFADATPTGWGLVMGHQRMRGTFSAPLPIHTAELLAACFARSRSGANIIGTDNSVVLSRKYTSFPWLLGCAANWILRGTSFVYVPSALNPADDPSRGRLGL

As for `Cc1c2cc(O)c(=O)cc-2oc2cc(O)c(O)cc12` [Compound 8], the “Activity vs. HBV Genomic Replication” value in the assay on HBV is “− (− no activity at 60 μM)”. Moreover, the “Residual activity at 10 uM, Genotype H” value in the assay on HBV genotype H RNAseH is on record as 74 ± 21 Percent DMSO control. For the same compound, at human RNAseH1, the “Inhibition of human RNAseH1” value is reported as “inhibited RNAseH1 well” and the “Activity vs. human RNAseH1” value is reported as “+++ (+++ inhibition at 10 μM)”. Moreover, in assay [1], the “Residual activity at 10 uM, HHC1” value is recorded as 55 ± 18 Percent DMSO control.
Regarding `COc1cc2c(cc1Cc1cccc(Cl)c1F)c(=O)c(C(=O)O)cn2[C@H](CO)C(C)C` [Compound 10, Elvitegravir, reference compound], the “Activity vs. HBV Genomic Replication” value in the assay with HBV is listed as “− (− no activity at 60 μM)”. The “Residual activity at 10 uM, Genotype H” value in the assay on HBV genotype H RNAseH came out at 66 ± 21 Percent DMSO control. At human RNAseH1, the “Inhibition of human RNAseH1” value is given as “had no effect on RNAseH1” and the “Activity vs. human RNAseH1” value is reported as “− (− no inhibition at 60 μM)”.
For `Cc1nnc(C(=O)NC(C)(C)c2nc(C(=O)NCc3ccc(F)cc3)c(O)c(=O)n2C)o1` [Compound 11, Raltegravir, reference compound], the “Activity vs. HBV Genomic Replication” value in the assay on HBV is on record as “− (− no activity at 60 μM)”. In the assay on HBV genotype H RNAseH, the “Residual activity at 10 uM, Genotype H” value is given as 63 ± 21 Percent DMSO control. Also, on human RNAseH1, the “Inhibition of human RNAseH1” value was “had no effect on RNAseH1” and the “Activity vs. human RNAseH1” value is given as “− (− no inhibition at 60 μM)”.
In the case of `NCc1ccc(-c2ccc(Cc3cc(=O)n(O)c4ncccc34)cc2)cc1` [Compound 12, napthyridinone], the “Activity vs. HBV Genomic Replication” value in the assay on HBV was “++ (++, clear activity at <10 μM)”. For the same compound, in the assay on HBV genotype H RNAseH, the “Inhibition of HBV genotype H RNAseH” value was “inhibited” and the “Residual activity at 10 uM, Genotype H” value was 17 ± 6 Percent DMSO control. The “Inhibition of human RNAseH1” value on human RNAseH1 is given as “inhibited it weakly”. In assay [1], the “Residual activity at 10 uM, HHC1” value is 32 ± 8 Percent DMSO control.
As for `COc1ccc2ccccc2c1C=NNC(=O)c1cc(O)c(O)c(O)c1` [Compound 14], the “Activity vs. HBV Genomic Replication” value with HBV is given as “− (− no activity at 60 μM)”. Also, in the assay on HBV genotype H RNAseH, the “Inhibition of HBV genotype H RNAseH” value was “inhibited” and the “Residual activity at 10 uM, Genotype H” value is on record as 27 ± 13 Percent DMSO control. Further, in assay [1], the “Residual activity at 10 uM, HHC1” value turned out to be 72 ± 2 Percent DMSO control.
Take `CCOc1ccc(-c2c3cc(O)c(=O)cc-3oc3cc(O)c(O)cc23)cc1` [Compound 30]: the “Activity vs. HBV Genomic Replication” value in the assay with HBV was “+ (+, activity detectable at >10 μM)”. In addition, the “Residual activity at 10 uM, Genotype H” value with HBV genotype H RNAseH amounted to 37 ± 8 Percent DMSO control. In addition, on human RNAseH1, the “Activity vs. human RNAseH1” value is “+++ (+++ inhibition at 10 μM)”. The “Residual activity at 10 uM, HHC1” value in assay [1] stood at 58 ± 12 Percent DMSO control.
With `Cc1cc(=O)oc2cc(O)c(O)cc12` [Compound 34], in the assay with HBV, the “Activity vs. HBV Genomic Replication” value is “− (− no activity at 60 μM)”. Moreover, in the assay with HBV genotype H RNAseH, the “Inhibition of HBV genotype H RNAseH” value is reported as “inhibited” and the “Residual activity at 10 uM, Genotype H” value is reported as 33 ± 12 Percent DMSO control. For the same compound, the “Activity vs. human RNAseH1” value on human RNAseH1 is recorded as “+ (+ inhibition at 60 μM)”. Besides, in assay [1], the “Residual activity at 10 uM, HHC1” value is 39 ± 4 Percent DMSO control.
With `[N-]=[N+]=NCc1cccc(C(=O)CC(=O)C(=O)O)c1` [Compound 40], the “Activity vs. HBV Genomic Replication” value in the assay on HBV is recorded as “− (− no activity at 60 μM)”. Also, in the assay with HBV genotype H RNAseH, the “Inhibition of HBV genotype H RNAseH” value is “inhibited” and the “Residual activity at 10 uM, Genotype H” value was found to be 22 ± 2 Percent DMSO control. Also, the “Residual activity at 10 uM, HHC1” value in assay [1] stood at 44 ± 10 Percent DMSO control.
A word on the IC50: it is the point on the concentration scale where inhibition reaches its midpoint. Take `CC(C)c1ccc(O)c(=O)c(O)c1` [Compound 46, beta-thujaplicinol]: the “Activity vs. HBV Genomic Replication” value in the assay with HBV is listed as “++ (++, clear activity at <10 μM)”. In addition, in the assay on HBV genotype H RNAseH (read-out: IC50 against HBV genotype H RNAseH), the IC50 amounted to 2300 ± 1700 nM. The “Effect on human RNAseH1” value at human RNAseH1 (0, 5, or 20 μM) is on record as “had little effect on the human RNAseH1”. Moreover, the “Effect on human RNAseH1 activity” value on human RNAseH1 (0.02 to 100 μM, listed as βTJ) is “had no effect on RNAseH1 activity; also recorded: failed to inhibit recombinant human RNAseH1”. The “Activity vs. human RNAseH1” value on human RNAseH1 is listed as “− (− no inhibition at 60 μM)”.
